Experimental findings from patent publication US20150329558A1, “FUSED HETEROCYCLIC COMPOUNDS AS ION CHANNEL MODULATORS” (Gilead Sciences, Inc., priority 2011, published 2015) are described below.

Where two headings read alike, the source gives them in different places.

Data set [1] concerns the target wild-type human cardiac sodium channel, hNav1.5 (late INa) (Homo sapiens, UniProt Q14524). The data set is described as follows: Late INa screening assay (QPatch whole cell patch clamp). The class given is cell-based. The procedure, abridged:
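Compounds tested at 1 μM final in extracellular solution against tefluthrin (10 μM)-enhanced late current. Automated patch clamp (23-25° C) on HEK293 expressing alpha subunit alone: −120 mV holding, 250 ms depolarization to −20 mV every 10 s. Read-out is percent inhibition of mean current over 225–250 ms.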

Data set [2] can be described thus: Microsomal stability assay, rat. The class given is in vitro ADME. The conditions noted are these: metabolic stability, rat liver microsomes 0.5 mg/mL, substrate 3 uM. The procedure, abridged:
(§1)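 Liver microsomes at 0.5 mg/mL protein in 100 mM KPO4 buffer, incubated with 3 uM compound and NADPH-regenerating system, run in duplicate. Samples taken at 2, 12, 25, 45 and 65 min and quenched in MeOH/ACN/water before analysis.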

Data set [3] can be described thus: Microsomal stability assay, human. It is filed as in vitro ADME. The conditions noted are these: metabolic stability, human liver microsomes 0.5 mg/mL, substrate 3 uM. Put shortly:
as §1
(Liver microsomes are vesicles of endoplasmic reticulum, rich in cytochrome P450 enzymes.)

[4] abbreviates: % inhibition at 1 μM, read-out: NAv1.5*-LATE-.
Setting [5] is: percent block of late INa, compound at 1 μM, 10 μM Tefluthrin, HEK293 hNav1.5, read-out: Late INa 1 μM.

Sequence of wild-type human cardiac sodium channel, hNav1.5 (late INa) (Q14524 whole entry): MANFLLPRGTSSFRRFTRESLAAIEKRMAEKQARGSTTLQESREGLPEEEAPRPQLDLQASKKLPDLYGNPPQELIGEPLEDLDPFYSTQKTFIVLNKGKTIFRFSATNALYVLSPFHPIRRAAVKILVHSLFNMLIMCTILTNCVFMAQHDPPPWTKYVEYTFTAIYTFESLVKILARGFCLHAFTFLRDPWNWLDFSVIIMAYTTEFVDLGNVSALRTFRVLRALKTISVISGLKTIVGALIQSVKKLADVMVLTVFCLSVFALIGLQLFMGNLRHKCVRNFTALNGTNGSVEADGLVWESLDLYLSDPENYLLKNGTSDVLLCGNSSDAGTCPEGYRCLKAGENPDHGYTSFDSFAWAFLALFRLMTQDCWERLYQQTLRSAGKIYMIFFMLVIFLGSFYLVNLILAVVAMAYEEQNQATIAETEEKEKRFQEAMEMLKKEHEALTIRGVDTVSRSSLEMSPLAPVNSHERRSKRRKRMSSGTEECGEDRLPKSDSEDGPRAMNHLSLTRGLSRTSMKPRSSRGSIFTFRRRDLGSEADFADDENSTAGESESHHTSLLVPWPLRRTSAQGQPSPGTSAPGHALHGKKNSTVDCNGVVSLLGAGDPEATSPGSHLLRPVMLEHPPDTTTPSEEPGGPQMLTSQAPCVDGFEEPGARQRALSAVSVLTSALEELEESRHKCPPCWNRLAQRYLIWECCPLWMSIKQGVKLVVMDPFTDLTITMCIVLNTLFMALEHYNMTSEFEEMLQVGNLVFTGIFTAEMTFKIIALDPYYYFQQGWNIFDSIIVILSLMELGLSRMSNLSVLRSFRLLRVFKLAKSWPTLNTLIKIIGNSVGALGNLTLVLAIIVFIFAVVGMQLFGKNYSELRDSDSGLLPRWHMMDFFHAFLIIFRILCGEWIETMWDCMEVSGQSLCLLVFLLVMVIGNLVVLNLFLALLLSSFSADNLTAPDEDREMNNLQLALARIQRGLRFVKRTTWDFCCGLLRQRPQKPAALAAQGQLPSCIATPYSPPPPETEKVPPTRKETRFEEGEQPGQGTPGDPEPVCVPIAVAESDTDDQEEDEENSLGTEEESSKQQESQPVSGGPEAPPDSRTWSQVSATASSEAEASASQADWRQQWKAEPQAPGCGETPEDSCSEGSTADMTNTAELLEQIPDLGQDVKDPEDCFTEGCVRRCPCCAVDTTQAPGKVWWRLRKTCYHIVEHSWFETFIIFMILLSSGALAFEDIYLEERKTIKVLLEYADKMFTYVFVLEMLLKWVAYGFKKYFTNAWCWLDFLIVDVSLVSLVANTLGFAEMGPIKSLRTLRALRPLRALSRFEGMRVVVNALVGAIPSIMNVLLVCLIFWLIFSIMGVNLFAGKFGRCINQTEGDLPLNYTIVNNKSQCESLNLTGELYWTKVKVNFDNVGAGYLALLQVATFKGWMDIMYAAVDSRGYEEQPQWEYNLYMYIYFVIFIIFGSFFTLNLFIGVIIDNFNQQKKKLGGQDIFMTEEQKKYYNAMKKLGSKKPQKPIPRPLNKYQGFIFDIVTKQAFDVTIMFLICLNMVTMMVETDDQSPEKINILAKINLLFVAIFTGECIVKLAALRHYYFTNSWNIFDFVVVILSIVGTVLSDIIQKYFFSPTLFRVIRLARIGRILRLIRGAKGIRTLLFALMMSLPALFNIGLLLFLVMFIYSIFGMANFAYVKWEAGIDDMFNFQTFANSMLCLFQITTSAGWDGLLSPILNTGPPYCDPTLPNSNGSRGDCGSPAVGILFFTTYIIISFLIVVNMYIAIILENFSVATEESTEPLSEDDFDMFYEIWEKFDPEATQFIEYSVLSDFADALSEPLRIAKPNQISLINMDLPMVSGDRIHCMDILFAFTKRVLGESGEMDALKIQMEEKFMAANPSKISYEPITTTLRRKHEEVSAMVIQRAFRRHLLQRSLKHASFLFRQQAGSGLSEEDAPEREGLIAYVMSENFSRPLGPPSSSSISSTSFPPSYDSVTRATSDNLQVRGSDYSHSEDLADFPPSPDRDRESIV

On to `O=C1c2cc(-c3ccc(C(F)(F)F)cc3)ccc2OCN1Cc1ccccn1` [VIII-1, 3-(pyridin-2-ylmethyl)-6-(4-(trifluoromethyl)phenyl)-2H-benzo[e][1,3]oxazin-4(3H)-one], for which the inhibition at 1 µM in data set [1] (setting [4]) and in data set [1] (setting [5]) was 52% each time. This molecule also came in with an MS Rat THalf in data set [2] of 211 min. The molecule further returned an MS Human THalf in data set [3] of 125 min.

For the molecule `O=C1c2cc(-c3ccc(OC(F)(F)F)cc3)ccc2OCN1Cc1ccccn1` [VIII-3, 3-(pyridin-2-ylmethyl)-6-(4-(trifluoromethoxy)phenyl)-2H-benzo[e][1,3]oxazin-4(3H)-one], the inhibition at 1 µM in data set [1] (setting [4]) and in data set [1] (setting [5]) was 58% in each case. In data set [2], the MS Rat THalf was 227 min. In data set [3], this molecule came in with an MS Human THalf of 285 min.

On to `CC1Oc2ccc(-c3ccc(OC(F)(F)F)cc3)cc2C(=O)N1Cc1ncccn1` (stereo not drawn) [VIII-7, 2-methyl-3-(pyrimidin-2-ylmethyl)-6-(4-(trifluoromethoxy)phenyl)-2H-benzo[e][1,3]oxazin-4(3H)-one], for which the inhibition at 1 µM in data set [1] (setting [4]) and in data set [1] (setting [5]) was 22% in each case. Besides, the MS Rat THalf in data set [2] worked out at 152 min. The MS Human THalf in data set [3] is 221 min.
